Measured values published in the NIST ThermoML archive (doi:10.1016/j.jct.2016.03.009).
± gives the expanded uncertainty stated by the source.

Conditions: Crystal 2; DSC

[Ag+].[S-2].[S-2].[Sb+3] [antimony(III) silver(I) sulfide]
Triple point temperature: 648.6 ± 2.1 K
